According to PubChem BioAssay AID248 (DTP/NCI, 2004):
Where “and” joins values, the source holds several entries; their conditions need not be identical. Equal values may be shown once. Toxic doses and inconclusive results are not listed.

Test system: L1210 leukemia ip in BDF1 mice, survival T/C
Assay: NCI In Vivo Anticancer Drug Screen. Data for tumor model L1210 Leukemia (intraperitoneal) in B6D2F1 (BDF1) mice
Details: endpoint: mean survival time, higher = longer survival
In short: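 Survival endpoint. Drug-treated group vs vehicle group, expressed as T divided by C. Tumor passaged by transplantation.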

[1] = dose: 100.0 mg/kg/injection, schedule: Q01DX001 (ip), vehicle: saline
[2] = dose: 200.0 mg/kg/injection, schedule: Q01DX001 (ip), vehicle: saline
[3] = dose: 400.0 mg/kg/injection, schedule: Q01DX001 (ip), vehicle: saline
[4] = dose: 100.0 mg/kg/injection, schedule: Q04DX002 (ip), vehicle: saline with Tween-80
[5] = dose: 200.0 mg/kg/injection, schedule: Q04DX002 (ip), vehicle: saline with Tween-80
[6] = dose: 100.0 mg/kg/injection, schedule: Q01DX009 (ip), vehicle: saline with Tween-80
[7] = dose: 100.0 mg/kg/injection, schedule: Q04DX003 (ip), vehicle: saline with Tween-80
[8] = dose: 200.0 mg/kg/injection, schedule: Q01DX009 (ip), vehicle: saline with Tween-80
[9] = dose: 400.0 mg/kg/injection, schedule: Q01DX009 (ip), vehicle: saline with Tween-80
[10] = dose: 400.0 mg/kg/injection, schedule: Q04DX003 (ip), vehicle: saline with Tween-80
[11] = dose: 100.0 mg/kg/injection, schedule: Q01DX009 (ip), vehicle: saline
[12] = dose: 200.0 mg/kg/injection, schedule: Q01DX009 (ip), vehicle: saline
[13] = dose: 100.0 mg/kg/injection, schedule: Q04DX003 (ip), vehicle: saline
[14] = dose: 200.0 mg/kg/injection, schedule: Q04DX003 (ip), vehicle: saline

O=c1[nH]c(=O)n(C2CC(O)C(CO)O2)cc1Br (configuration not stated)
T/C (dose: 50.0 mg/kg/injection, schedule: Q02DX Z (ip), vehicle: carboxymethylcellulose (CMC)): 108 % of control | T/C (dose: 100.0 mg/kg/injection, schedule: Q02DX Z (ip), vehicle: carboxymethylcellulose (CMC)): 107 % of control | T/C (dose: 150.0 mg/kg/injection, schedule: Q02DX Z (ip), vehicle: carboxymethylcellulose (CMC)): 109 % of control | T/C (dose: 200.0 mg/kg/injection, schedule: Q02DX Z (ip), vehicle: carboxymethylcellulose (CMC)): 113 % of control | T/C (dose: 250.0 mg/kg/injection, schedule: Q02DX Z (ip), vehicle: carboxymethylcellulose (CMC)): 109 % of control | T/C (dose: 300.0 mg/kg/injection, schedule: Q02DX Z (ip), vehicle: carboxymethylcellulose (CMC)): 113 % of control | T/C (dose: 400.0 mg/kg/injection, schedule: Q02DX Z (ip), vehicle: carboxymethylcellulose (CMC)): 110 % of control | T/C (dose: 500.0 mg/kg/injection, schedule: Q02DX Z (ip), vehicle: carboxymethylcellulose (CMC)): 114 % of control | T/C (dose: 600.0 mg/kg/injection, schedule: Q01DX009 (ip), vehicle: carboxymethylcellulose (CMC)): 123 % of control | T/C (dose: 600.0 mg/kg/injection, schedule: Q02DX Z (ip), vehicle: carboxymethylcellulose (CMC)): 122 % of control | T/C (dose: 800.0 mg/kg/injection, schedule: Q01DX Z (ip), vehicle: carboxymethylcellulose (CMC)): 122 % of control | T/C (dose: 1000.0 mg/kg/injection, schedule: Q01DX Z (ip), vehicle: carboxymethylcellulose (CMC)): 113 % of control | T/C (dose: 1800.0 mg/kg/injection, schedule: Q01DX009 (ip), vehicle: carboxymethylcellulose (CMC)): 102 % of control

c1ccc(C2SC(c3ccccc3)SC(c3ccccc3)S2)cc1 (configuration not stated)
T/C [1]: 90 % of control | T/C [2]: 88 % of control | T/C [3]: 92 % of control

CC(C)C(C(=O)c1ccccc1)C(c1ccccc1)c1ccccc1 (configuration not stated)
T/C (dose: 100.0 mg/kg/injection, schedule: Q01DX009 (ip), vehicle: other): 103 % of control | T/C (dose: 200.0 mg/kg/injection, schedule: Q01DX009 (ip), vehicle: other): 90 % of control | T/C (dose: 400.0 mg/kg/injection, schedule: Q01DX009 (ip), vehicle: other): 103 % of control

CP1(=S)CCC(=O)CC1
T/C [4]: 91 % of control | T/C [5]: 95 % of control | T/C (dose: 400.0 mg/kg/injection, schedule: Q04DX002 (ip), vehicle: saline with Tween-80): 98 % of control

Cc1ccc(C)c(NC(=O)NCc2ccc(Cl)cc2)c1
T/C [6]: 87 % of control | T/C [7]: 93 % of control | T/C [8]: 89 % of control | T/C [9]: 93 % of control | T/C [10]: 100 % of control

O=C(O)c1c(Cl)[nH]c2ccccc12
T/C (dose: 50.0 mg/kg/injection, schedule: Q04DX002 (ip), vehicle: saline with Tween-80): 101 % of control | T/C [4]: 97 % of control | T/C [5]: 89 % of control

O=NN(CCCl)C(=O)NC(Cc1ccccc1)C(=O)O (configuration not stated)
T/C (dose: 12.0 mg/kg/injection, schedule: Q01DX001 (ip), vehicle: gum acacia): 118 % of control | T/C (dose: 28.0 mg/kg/injection, schedule: Q01DX001 (ip), vehicle: gum acacia): 188 % of control | T/C (dose: 42.0 mg/kg/injection, schedule: Q01DX001 (ip), vehicle: gum acacia): 195 % of control | T/C (dose: 63.0 mg/kg/injection, schedule: Q01DX001 (ip), vehicle: gum acacia): 256 % of control | T/C (dose: 112.0 mg/kg/injection, schedule: Q01DX001 (ip), vehicle: gum acacia): 163 % of control | T/C (dose: 168.0 mg/kg/injection, schedule: Q01DX001 (ip), vehicle: gum acacia): 120 % of control

N#Cc1c2c(c(O)[nH]c1=O)CCCC2
T/C [11]: 97 % of control | T/C (dose: 100.0 mg/kg/injection, schedule: Q04DX003 (ip), vehicle: Klucel (hydroxypropylcellulose) (HPC)): 94 % of control | T/C [12]: 97 % of control | T/C (dose: 200.0 mg/kg/injection, schedule: Q04DX003 (ip), vehicle: Klucel (hydroxypropylcellulose) (HPC)): 102 % of control | T/C (dose: 400.0 mg/kg/injection, schedule: Q01DX009 (ip), vehicle: saline): 101 % of control | T/C (dose: 400.0 mg/kg/injection, schedule: Q04DX003 (ip), vehicle: Klucel (hydroxypropylcellulose) (HPC)): 96 % of control

O=C(C[n+]1cccc(CO)c1)c1ccc(-c2ccc(C(=O)C[n+]3cccc(CO)c3)cc2)cc1
T/C (dose: 0.05 mg/kg/injection, schedule: Q04DX003 (ip), vehicle: saline): 105 % of control | T/C (dose: 0.1 mg/kg/injection, schedule: Q04DX003 (ip), vehicle: saline): 100 % of control | T/C (dose: 0.2 mg/kg/injection, schedule: Q04DX003 (ip), vehicle: saline): 108 % of control

CNNC(=O)CCc1ccccc1
T/C (dose: 10.0 mg/kg/injection, schedule: Q01DX009 (ip), vehicle: saline): 103 % of control | T/C (dose: 20.0 mg/kg/injection, schedule: Q01DX009 (ip), vehicle: saline): 93 % of control | T/C (dose: 40.0 mg/kg/injection, schedule: Q01DX009 (ip), vehicle: saline): 90 % of control

[N-]=[N+]=Nc1ccc2[nH]c3ccccc3c(=O)c2c1
T/C (dose: 50.0 mg/kg/injection, schedule: Q01DX009 (ip), vehicle: saline): 90 % of control | T/C [11]: 93 % of control | T/C (dose: 100.0 mg/kg/injection, schedule: Q04DX003 (ip), vehicle: acetone): 92 % of control | T/C [12]: 95 % of control | T/C (dose: 200.0 mg/kg/injection, schedule: Q04DX003 (ip), vehicle: acetone): 97 % of control | T/C (dose: 400.0 mg/kg/injection, schedule: Q04DX003 (ip), vehicle: acetone): 97 % of control

CCCCCCCCCCCCCCCC(CCCC)C1CCCCC1 (configuration not stated)
T/C (dose: 100.0 mg/kg/injection, schedule: Q01DX001 (ip), vehicle: saline + alcohol): 100 % of control | T/C (dose: 200.0 mg/kg/injection, schedule: Q01DX001 (ip), vehicle: saline + alcohol): 98 % of control | T/C (dose: 400.0 mg/kg/injection, schedule: Q01DX001 (ip), vehicle: saline + alcohol): 96 % of control

CC(=O)[O][Ge]([CH2]CC(C)C)([CH2]CC(C)C)[CH2]CC(C)C
T/C (dose: 50.0 mg/kg/injection, schedule: Q01DX001 (ip), vehicle: carboxymethylcellulose (CMC)): 100 % of control | T/C (dose: 50.0 mg/kg/injection, schedule: Q01DX001 (ip), vehicle: saline): 100 % of control | T/C (dose: 100.0 mg/kg/injection, schedule: Q01DX001 (ip), vehicle: carboxymethylcellulose (CMC)): 100 % of control | T/C [1]: 102 % of control | T/C (dose: 200.0 mg/kg/injection, schedule: Q01DX001 (ip), vehicle: carboxymethylcellulose (CMC)): 100 % of control | T/C [2]: 106 % of control | T/C (dose: 400.0 mg/kg/injection, schedule: Q01DX001 (ip), vehicle: carboxymethylcellulose (CMC)): 96 % of control | T/C [3]: 118 % of control

CCCCN(CCCC)C(=O)CCC
T/C [13]: 102 % of control | T/C [14]: 95 % of control

CCOC(=O)N1CCC2(CC1)NC(=O)c1ccccc1N2
T/C [6]: 98 % of control | T/C [7]: 100 % of control | T/C [8]: 97 % of control | T/C (dose: 200.0 mg/kg/injection, schedule: Q04DX003 (ip), vehicle: saline with Tween-80): 102 % of control | T/C [9]: 97 % of control | T/C [10]: 96 % of control

CSc1ccc2c(c1)N(CCC1CCCCN1C)c1ccccc1S2 (configuration not stated)
T/C (dose: 0.78 mg/kg/injection, schedule: Q01DX009 (ip), vehicle: saline): 101 % of control | T/C (dose: 1.56 mg/kg/injection, schedule: Q01DX009 (ip), vehicle: saline): 103 % of control | T/C (dose: 3.12 mg/kg/injection, schedule: Q01DX009 (ip), vehicle: saline): 94 % of control and 98 % of control | T/C (dose: 6.25 mg/kg/injection, schedule: Q01DX009 (ip), vehicle: saline): 94 % of control and 101 % of control | T/C (dose: 12.5 mg/kg/injection, schedule: Q01DX009 (ip), vehicle: saline): 98 % of control and 116 % of control | T/C (dose: 25.0 mg/kg/injection, schedule: Q04DX003 (ip), vehicle: saline): 103 % of control | T/C (dose: 50.0 mg/kg/injection, schedule: Q04DX003 (ip), vehicle: saline): 92 % of control

Cc1ccc(NC(=O)OC/C=C/c2ccccc2)cc1NC(=O)OC/C=C/c1ccccc1
T/C (dose: 200.0 mg/kg/injection, schedule: Q01DX009 (ip), vehicle: Klucel (hydroxypropylcellulose) (HPC)): 93 % of control

Cc1cc(NC(=O)SCCOC(=O)COc2ccc(Cl)cc2)ccc1Cl
T/C [6]: 94 % of control | T/C [8]: 88 % of control | T/C [9]: 90 % of control

CC(C)N(CCO)CCO
T/C [13]: 100 % of control | T/C [14]: 102 % of control | T/C (dose: 400.0 mg/kg/injection, schedule: Q04DX003 (ip), vehicle: saline): 100 % of control
